Results as given in patent publication US7985072B2, “Method and apparatus for tooth rejuvenation and hard tissue modification” (Rejuvedent LLC, priority 2005, dated 2011).

Tests used:
[1] = Depth of the etched (porous) enamel layer with aqueous citric acid solution, parameters of equation (1)
Text: The inventors conducted a series of tests to determine the optimal pH, temperature and time for tooth rejuvenation, and for designing various devices for the tooth rejuvenation procedure. […] The enamel surface is not homogeneous, it contains inorganic components, such as hydroxyapatite, in the form of crystals oriented towards its surface. The enamel surface also contains organic components, such as proteins. When the organic and inorganic components are exposed to an aqueous acid solution, such exposure leads to the deconstruction and removal of these components to a certain depth into the enamel, forming a superficial porous layer. Stains, bacteria and the weak components of the enamel are removed from the porous layer, bleached or destroyed by the acid. Exposure time, pH and the concentration and temperature of the solution all affect the depth of tissue treatment and structure of surface after treatment. The removal and bleaching of the organic component is important because this component contains the most pigment. The organic component is however, tightly bound to the inorganic component, which occurs during tooth formation and is not affected by factors such as frequency of tooth brushing, or the type of toothpaste used. Because of this, bleaching removes both the organic and the bonded inorganic components.
(§1) The ability of an aqueous acidic solution to deconstruct and dissolve both organic and inorganic components depends on the period of time, pH, concentration, and temperature at which the process occurs. The color of the enamel after stain removal and bleaching is determined by how closely the structure after etching matches the natural structure and how well light is scattered from the surface of the tooth. Remineralization is however, a slow process, so caution in carrying out the procedure is recommended, and it is desirable to protect the new surface with a hard material. To achieve this, the present invention proposes the use of a high concentration of acid to minimize the time of treatment. For a high concentration of acid to be used safely within the oral cavity, two fundamental safety concerns need to be addressed: firstly toxicity and secondly soft tissue damage. To completely eliminate the toxicity problem, especially for home use, we propose the use of an edible acid which is non-toxic when ingested. The volume of acid for any application in the present invention is limited to several cubic centimeters. After dissolution in saliva the concentration of the acid ingested will drop, and the pH will increase, which is typical for foodstuffs. A typical pH for food acids is 2.5 or more. We have studied the effect of a low pH (<2.5) edible acid on intact enamel.
The temperature of the acid is another parameter to be optimized for enamel etching when using a high concentration of acid. An increase in temperature increases the depth of etching due to two factors: first, it increases the diffusion coefficient and, second, the rate of the chemical reaction between the acid and the enamel due to Arrenius law. […] These graphs can be described by the following formula: […]
Here, hw is the depth of the porous layer of enamel in μm after t min of etching as a function of t. Parameters cc, ct, and D can be the functions of both temperature T and pH.
The parameters α, cc, and D were found using the best square fit.

[2] = Comparison of edible acids as bleaching agents for removal of stains in enamel; settings: low pH (<2.5), intact enamel
Method: as §1, with “enamel. […]” for “enamel.”

[3] = Example 3: thermal treatment of etched enamel impregnated by sapphire particles (CO2 laser), in vitro; set-up: species or system human; settings: pH=1.5, approximately +50° C., approximately 10 minutes
Method: The authors produced a durable, white colored coating on the enamel surface in an in-vitro experiment as described below. The experiment was conducted on freshly extracted teeth from subjects in the 25-40 age group. The teeth were extracted for periodontal reasons. All specimens had healthy, intact enamel. Prior to the experiment, the specimen were stored for no longer than two weeks in a physiological solution, in a dark place at a temperature of approximately +4° C.
One half of the crown of the tooth was coated with varnish. […] The tooth was exposed to the acid for a period of approximately 10 minutes, which was sufficient for the formation of a porous layer of enamel, approximately 50 μm in thickness on unprotected side of the specimen. […]
Thermocycling test was performed after described treatment The tooth was placed into two alternate water baths, one at +25° C. and the other at +90° C., for a period of 2 seconds into each bath, for a total immersion of 100 cycles. The hardness of the treated and untreated sides was assessed, before and after thermocycling, using a dental probe. The strength of the adhesion of the newly formed layer with sapphire particles to the underlying enamel was also assessed using the tip of the dental probe in an attempt to dislodge the newly formed layer at the border.

O=C(O)CC(O)(CC(=O)O)C(=O)O [citric acid]
etched depth of the tooth enamel ([1]; 50° C., pH=1.5, from the presented graphs (exposure time 10 min)): 40 μm | D, parameter of equation (1), thickness of porous (etched) layer of enamel ([1]; T = 50° C., pH 1): 94.035 μm^2/min | α1, parameter of equation (1), thickness of porous (etched) layer of enamel ([1]; T = 50° C., pH 1): 1.069 μm/min | α, parameter of equation (1), thickness of porous (etched) layer of enamel ([1]; T = 50° C., pH 1): 3.195 μm/min | D, parameter of equation (1), thickness of porous (etched) layer of enamel ([1]; T = 50° C., pH 2): 4.646 μm^2/min | α1, parameter of equation (1), thickness of porous (etched) layer of enamel ([1]; T = 50° C., pH 2): 0.559 μm/min | α, parameter of equation (1), thickness of porous (etched) layer of enamel ([1]; T = 50° C., pH 2): 1.022 μm/min | α1, parameter of equation (1), thickness of porous (etched) layer of enamel ([1]; T = 50° C., pH 2.5): −0.018 μm/min | α, parameter of equation (1), thickness of porous (etched) layer of enamel ([1]; T = 50° C., pH 2.5): 0.211 μm/min | D, parameter of equation (1), thickness of porous (etched) layer of enamel ([1]; pH = 1.5, 20 °C): 2.604 μm^2/min | α1, parameter of equation (1), thickness of porous (etched) layer of enamel ([1]; pH = 1.5, 20 °C): 0.158 μm/min | α, parameter of equation (1), thickness of porous (etched) layer of enamel ([1]; pH = 1.5, 20 °C): 0.524 μm/min | D, parameter of equation (1), thickness of porous (etched) layer of enamel ([1]; pH = 1.5, 37 °C): 23.124 μm^2/min | α1, parameter of equation (1), thickness of porous (etched) layer of enamel ([1]; pH = 1.5, 37 °C): 0.515 μm/min | α, parameter of equation (1), thickness of porous (etched) layer of enamel ([1]; pH = 1.5, 37 °C): 1.751 μm/min | D, parameter of equation (1), thickness of porous (etched) layer of enamel ([1]; pH = 1.5, 40 °C): 36.801 μm^2/min | α1, parameter of equation (1), thickness of porous (etched) layer of enamel ([1]; pH = 1.5, 40 °C): 0.469 μm/min | α, parameter of equation (1), thickness of porous (etched) layer of enamel ([1]; pH = 1.5, 40 °C): 1.921 μm/min | D, parameter of equation (1), thickness of porous (etched) layer of enamel ([1]; pH = 1.5, 45 °C): 74.738 μm^2/min | α1, parameter of equation (1), thickness of porous (etched) layer of enamel ([1]; pH = 1.5, 45 °C): 0.833 μm/min | α, parameter of equation (1), thickness of porous (etched) layer of enamel ([1]; pH = 1.5, 45 °C): 2.767 μm/min | D, parameter of equation (1), thickness of porous (etched) layer of enamel ([1]; pH = 1.5, 50 °C): 121.664 μm^2/min | α1, parameter of equation (1), thickness of porous (etched) layer of enamel ([1]; pH = 1.5, 50 °C): 1.31 μm/min | α, parameter of equation (1), thickness of porous (etched) layer of enamel ([1]; pH = 1.5, 50 °C): 3.755 μm/min | D, parameter of equation (1), thickness of porous (etched) layer of enamel ([1]; pH = 1.5, 60 °C): 122.528 μm^2/min | α1, parameter of equation (1), thickness of porous (etched) layer of enamel ([1]; pH = 1.5, 60 °C): 1.504 μm/min | α, parameter of equation (1), thickness of porous (etched) layer of enamel ([1]; pH = 1.5, 60 °C): 4.124 μm/min | effectiveness among edible acids (lactic, malic, tartaric, oxalic acid) [2]: most effective | thickness of porous layer of enamel formed [3]: approximately 50 μm
